One data set has as its system adenovirus of serotype 8. The experiment in a line: anti-adenoviral activity, plaque assay in human epithelial cell line NCTC 2544 (EP). Type of data set: cell-based, adenovirus type 8. As for the experimental part: The anti-adenoviral activity of Compound No. 1 referred to above was tested as follows:
(§1) Cells of human epithelial cell line NCTC 2544 (EP) were serially passaged from 75 cm^2 tissue culture flasks (Corning) at a spilt ratio of 1/20 every 7 days. The growth medium was Eagles BHK medium supplemented with 10% foetal bovine serum and contained 2.5% of 4.4% sodium bicarbonate solution together with 1% of penicillin (5000 IU ml^-1) and streptomycin (600 μg ml^-1) (Flow).
A stock of adenovirus of type 8 was prepared in 25 cm^2 tissue culture flasks. Flasks were seeded with 2×10^6 EP cells in growth medium and incubated overnight at 37° C. The medium was decanted and 1.0 ml of stock virus suspension was added to the flask. After 1.0 hr adsorption 10 ml of maintenance medium (as above but with 2% serum) was added to the flask.
The flask were incubated at 37° C. After 72 hrs the classical'bunch of grapes' cytopathic effect was visible. The flasks were then frozen and thawed 3 times to liberate the virus and stored at -70° C. Viral titres were usually of the order of 4×10^8 pfu ml^-1.
The plaque assay was performed in 50 mm diameter plastic tissue culture dishes which were initially seeded with 2×10^6 EP cells in growth medium and incubated overnight in 5% CO2 at 37° C. […]

A short description of data set [1]: Cytotoxicity Determination, trypan blue exclusion method. The class given is cell-based. To be noted: human, NCTC 2544 cells, read-out: 50% cell culture inhibitory concentration. As for the experimental part: as §1
Cytotoxicity was determined by means of the trypan blue exclusion method. NCTC 2544 cells were prepared in growth medium and aliquots added to […] tissue culture flasks at approximately 1×10^5 cells/ml. At 24 hours the flasks were divided and replenished with growth medium. One half of the flasks received growth medium containing 10 fold dilutions of compound thus exposing the cells to 1, 10, and 100 μM concentrations. At 24, 48, and 72 hours representative flasks were removed from the incubator and the monolayers washed to remove debris. The cells were resuspended in growth medium and aliquots mixed with an equal volume of trypan blue. Stained and unstained cells were counted in a haemocytometer. Cell counts were adjusted to cells/ml. An estimate of the growth and viability of treated and untreated cells was then made.

The subject of another data set is adenovirus serotype 5. The experiment in a line: anti-adenovirus activity against serotype 5 (statement only). The class given is cell-based.

Here are results for one compound from patent US5070078A, “Antiviral compounds” (Burroughs Wellcome Co., priority 1987, dated 1991).

In general, IC50 refers to the point on the concentration scale where inhibition reaches its midpoint. High values mean a need for much substance, low ones inhibition by little substance.

For the compound `Cc1cn([C@H]2C[C@H](F)[C@@H](CO)O2)c(=O)[nH]c1=O` [Compound No. 1, 2',3'-dideoxy-3'-fluorothymidine], the “anti-adenovirus activity (in words)” value with adenovirus of serotype 8 (serotype 8) and in the data set on adenovirus serotype 5 was “particularly high anti-adenovirus activity” each time. This compound returned an IC50 in the data set on adenovirus of serotype 8 (unidentified adenovirus, NCTC-2544, adenovirus serotype 8, EP cells, plaque assay) of 0.005 µM. Further, the CC50 at 72 h in data set [1] stood at 38 µM.
